The values that follow come from patent publication US8835644B2, “Broad spectrum benzothiophene-nitrothiazolide and other antimicrobials” (University of Virginia Patent Foundation, priority 2009, dated 2014).

The structures appear in SMILES notation. Converted amounts (≈) assume the structure as drawn. Structures can show the parent of a compound that is named as a salt. Where two headings read alike, the source gives them in different places.

The test system of data set [1] is S. aureus and S. epidermidis strains. Description: MIC by microdilution in TSB, staphylococcal strains. The class given is cell-based, Staphylococcus epidermidis. As to conditions: Staphylococcus aureus. The procedure: Minimal inhibitory concentration testing of NTZ was done in sterile round bottom 96 well microtiter polystyrene plates (Corning Inc., Corning, N.Y.) by microdilution. Tizoxanide TIZ (deacetylated form of NTZ), denitro-NTZ (TIZ without 5-nitro group) and amoxanide AMIX (TIZ-ethylamine) were also tested. Bacteria were grown overnight and suspended in fresh TSB to an OD600 of 0.01 and 100 μl were dispensed into wells with the first well containing 200 μA NTZ and other antibiotics (DMSO control) were added to well one and serially diluted from 32 μg/ml. All compounds were tested in triplicate and plates were read visually or with a plate reader (Molecular Devices) at 8, 12 and at 24 h. MIC was determined as the first well in which no visible bacterial growth was noted relative to controls. Drug effects on aerobic growth were determined in 125 ml flasks containing 25 ml of TSB medium and following inoculation (detailed above), flasks were on a gyrorotary shaker (200 rpm) at 37° C. Final concentrations of NTZ were 0, 10 and 25 μg/ml and samples were removed at hourly intervals and absorbance determined at 600 nm.

Data set [2] concerns S. epidermidis strain 9142. Description: Biofilm determination, crystal violet, S. epidermidis. In kind it is cell-based, Staphylococcus epidermidis. How it is done:
Staphylococcal strains were cultured overnight in TSB at 37° C. with shaking, diluted in fresh medium to an OD600 of 0.01 and 200 W was dispensed into sterile flat bottom polystyrene 96 well microtiter plates (Costar 3596, Corning Inc.). […] Each compound and dilution was tested in triplicate. The plates were incubated overnight at 37° C. in a humidified incubator, without shaking and both growth and biofilm accumulation were determined at 16 h.
Following recording of turbidities, the culture medium was aspirated and the wells were washed three times with distilled water, blotted on paper towels, and fixed with 75% ethanol for 10 minutes.
To visualize biofilm material, 0.5% crystal violet was added to each well and after 5 minutes was removed and the wells washed three times with distilled water. Plates were read using a microplate reader at a wavelength of 570 nm. The dye was then extracted by adding 200 W of 95% ethanol, and the absorbance was read again at 570 nm. All assays were performed in triplicate and the mean and standard deviation determined. Generally, the ethanol-solubilized crystal violet was more reliable and these determinations are reported throughout.

Data set [3] can be described thus: Zn2+ chelation, spectrophotometric and 1H NMR. As to conditions: 1H NMR in DMSO-d6, ratios 1:1, 1:2, 2:1, up to 72 h. The class given is physicochemical. The procedure:
To test direct binding of Zn^2+ by NTZ in solution, we tested a range of concentrations of both NTZ and TIZ and scanned the solutions spectrophotometrically using an OLIS Cary-14 (OLIS Instruments Co., Bogart Ga.). Absolute spectra were recorded over a UV/Vis range from 220 nm to 700 nm. Spectral shifts in the 418 nm range would be attributable to changes in resonance within the thiazole ring that would result if Zn^2+ were coordinated by NTZ (9).
Chelation experiments were also performed utilizing NTZ and TIZ in DMSO-d6 (0.5 mL) with ZnCl2 using a 300 MHz Varian MercuryPlus spectrometer. Specifically, three ratios of NTZ to Zn^2+ were investigated (1:1, 1:2, 2:1) where NTZ was held constant (4 mg, 13 μmoles) while varying ZnCl2 (1.8 mg, 13 μmoles or 3.5 mg, 26 μmoles) or NTZ (8 mg, 26 μmoles) with ZnCl2 (1.8 mg, 13 μmoles). Three ratios of TIZ to Zn^2+ were also investigated (1:1, 1:2, 2:1) where TIZ was held constant (4 mg, 15 μmoles) while varying ZnCl2 (2.1 mg, 15 μmoles or 4.1 mg, 30 μmoles) or TIZ (8 mg, 30 μmoles) with ZnCl2 (2.1 mg, 15 μmoles). ^1H NMR spectra were then obtained after mixing for 5 min, 24 h, 48 h, and 72 h at room temperature. Any chelation event would be evidenced by shifting or broadening of the thiazole and benzene protons as well as loss of the amide proton.

The conditions of data set [4]: reference (33); cited from earlier work.
For data set [5], the system named is C. difficile. Description: MIC by agar dilution, C. difficile. In kind it is cell-based, Clostridium difficile. As to conditions: Clostridioides difficile, read-out: MIC (μM) C. difficile. The procedure:
A standard broth dilution protocol was used in 96 well microplates containing a standard dilution of the microorganism to be tested in 100 microliters of the appropriate medium. Appropriate medium: E. coli, LB medium; Staphylococcus strains, Trypticase Soy; and for H. pylori and C. jejuni, Brain Heart Infusion. The compounds to be tested were set at 32 μg/ml in 200 microliters in well one and then serially diluted to provide a range from 32 to 0.06. The wells were scored visually at 24 h. The well where there was no growth was recorded as the MIC. […]
Representative compounds of the invention were tested in a series of assays against a series of organisms as described above. […] The organisms tested include, C. difficile, H. pylori, C. jejuni, MRSA, S. epidermidis, and E. coli. S. epidermidis and E. coli were tested in the plank and biofilm assay. A disk diffusion assay was also used for C. difficile. Direct PFOR enzyme assays were also performed. All analogues and derivatives were not tested on every organism in every type of assay (the “-” in each table means that it was not tested).

The test system of a further data set is H. pylori. Description: MIC testing by broth dilution, H. pylori. In kind it is cell-based, Helicobacter pylori. As to conditions: Helicobacter pylori, 24 h, read-out: MIC (μM) H. pylori. Summed up:
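Helicobacter pylori was tested using a standard broth dilution method in 96 well microplates, each well holding a standard dilution of the organism in 100 microliters of Brain Heart Infusion. Compounds started at 32 μg/ml in 200 microliters in the first well and were serially diluted from 32 to 0.06. Wells were read visually at 24 h, and the MIC was the well with no growth.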

Another data set has as its system C. jejuni. The data set can be described thus: MIC testing by broth dilution, C. jejuni. The class given is cell-based, Campylobacter jejuni. As to conditions: Campylobacter jejuni, 24 h, read-out: MIC (μM) C. jejuni. An outline of the steps:
(§1)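 Media: LB (E. coli), Trypticase Soy (S. epidermidis), BHI (C. jejuni); plank cells. C. difficile on Wilkins Chalgrin agar, anaerobic Kirby-Bauer disks, zone vs NTZ zone ratio.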

For the next data set, the system named is MRSA. Description: MIC testing by broth dilution, MRSA. As to conditions: Staphylococcus aureus, MRSA, 24 h, read-out: MIC (μM) MRSA. The class given is cell-based, Staphylococcus aureus. An outline of the steps: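 Values are broth-dilution MICs, defined as the well showing no growth on visual reading after 24 h; the tested range was 32 to 0.06 μg/ml, in organism-specific media (LB, Trypticase Soy, Brain Heart Infusion). The C. difficile entries come instead from anaerobic Kirby-Bauer disk zones, normalised to NTZ.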

The next data set deals with S. epidermidis. Description: MIC testing by broth dilution, S. epidermidis plank. As to conditions: Staphylococcus epidermidis, 24 h, read-out: MIC (μM) S. epidermidis Plank. In kind it is cell-based, Staphylococcus epidermidis. Summed up: as §1
For the next data set, the system named is S. epidermidis biofilm. Description: S. epidermidis biofilm assay (activity tables). The class given is cell-based, Staphylococcus epidermidis. An outline of the steps: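 Overnight TSB cultures diluted to OD600 0.01 and grown static with compound (triplicate) at 37° C for 16 h; turbidity recorded for growth. Biofilm: washed wells ethanol-fixed, stained with 0.5% crystal violet, A570 read before and after 95% ethanol extraction; mean ± SD.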

A further data set concerns E. coli. The data set can be described thus: MIC testing by broth dilution, E. coli plank. The class given is cell-based, Escherichia coli. As to conditions: Escherichia coli, 24 h, read-out: MIC (μM) E. coli Plank. Summed up: as §1
The subject of a further data set is E. coli biofilm. The data set can be described thus: E. coli biofilm assay (activity tables). As to conditions: Escherichia coli, read-out: MIC (μM) E. coli Biofilm. The class given is cell-based, Escherichia coli. An outline of the steps:
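E. coli strain 042 inoculated 1:100 with NTZ-containing medium and grown statically at 37 °C for 24 h. Growth measured by turbidity or plate counts (cfu/ml); biofilm stained with 0.5% crystal violet and read at 570 nm; triplicate, mean ± SD.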

Data set [6] relates to C. difficile. Description: Disk diffusion (Kirby Bower), C. difficile. The class given is cell-based, Clostridium difficile. As to conditions: zone of inhibited growth as relative ratio to the zone for NTZ. Summed up: as §1
Data set [7] has as its system PFOR (pyruvate ferredoxin oxidoreductase). Description: Direct PFOR enzyme assay. The class given is biochemical.
Data set [8] concerns S. epidermidis strain 9142. The data set can be described thus: Effect of zinc on the action of NTZ (biofilm and MIC). The class given is cell-based, Staphylococcus epidermidis. As to conditions: zinc 20 μM, read at 8 h. The procedure:
[…] As a control, ZnCl2 was added to untreated bacteria. Additional controls included testing of 10 μM CaCl2 and MgCl2 in the same format. The inhibitory effect of EDTA on biofilm production and its reversibility by Zn^2+ was also assessed as described for NTZ.

The next data set in a line: Solubility in water. The class given is physicochemical.
Data set [9] deals with E. histolytica. Description: Amoebic dysentery mouse infection model. The class given is in vivo. As to conditions: drugs given orally or parenterally in advance.
The test system of data set [10] is E. histolytica. The data set can be described thus: E. histolytica cell counts.

In the case of `O=C(Nc1ncc([N+](=O)[O-])s1)c1ccccc1O` [TIZ], the MIC in [1] (staphylococcal strains incl. MRSA S. aureus, microdilution in TSB, read-out: MIC) lay within 8 to 16 µg/mL (≈ 30.2 to 60.3 µM). Moreover, in data set [2] (compared with NTZ), the “Inhibition of biofilm production” value is “equivalent results”. Moreover, the “Chelation with ZnCl2” value in data set [3] is on record as “no chelation”. Moreover, the “Bound to plasma proteins” value in data set [4] is given as 97.5%.
On to `NCCOc1ccccc1C(=O)Nc1ncc([N+](=O)[O-])s1` [VPC161219, 2-(2-Aminoethoxy)-N-(5-nitrothiazol-2-yl)benzamide hydrochloride], for which the MIC in the data set with C. difficile [5] was found to be 46.4 µM; in the data set on H. pylori, 0.7 µM; with C. jejuni it was 17.4 µM; with MRSA, 92.8 µM; with S. epidermidis it was 92.8 µM; in the data set on E. coli it was 69.6 µM. Also, the results for the MIC (in the data set with E. coli biofilm; in data set [1] (MRSA)) were 46.4 µM and 16 to 32 µg/mL, respectively. The “MIC (μM) S. epidermidis Biofilm” value in the data set with S. epidermidis biofilm stood at 46.4 µM. Also, the “Disk Diffusion (%) C. difficile” value in the data set on C. difficile [6] was found to be 88 ± 4%. For the same compound, the “PFOR inhibition relative to nitazoxanide (=100)” value in [7] is given as 114%. In addition, the “Fold decrease in anti-biofilm potency versus NTZ” value in data set [2] (S. epidermidis 9142) is given as 2 fold. The IC50 in [2] (Staphylococcus epidermidis, 9142, read-out: IC50 biofilm production) worked out at 8 µg/mL. Further, in [8], the “Effect of Zn2+ on the growth inhibitory action (MIC)” value was “no effect”. In addition, in the data set “Solubility in water” (more soluble than NTZ), the “Fold difference in water solubility versus NTZ” value was found to be 15 fold. In the data set “Solubility in water” (water), this compound registered a solubility of 400 µg/mL. Besides, the Prevention rates result in the data set with E. histolytica [9] is “equivalence”. In addition, the “E. histolytica cell counts, compared by MIC” value in the data set with E. histolytica [10] was “superior to nitazoxanide based on MIC”.
